The source made the active and inactive calls. No cut-off for these calls is given here.

From ChEMBL document CHEMBL3817730, “Design, synthesis and antimetastatic evaluation of 1-benzothiazolylphenylbenzotriazoles for photodynamic therapy in oral cancer cells” (Medchemcomm, 2016) come the findings set out here.

A short description of data set [1]: Cytotoxicity against human Ca9-22 cells assessed as cell survival at 5 uM preincubated for 4 hrs followed by 1 Jcm'-2 UVA irradiation measured after 24 hrs by MTT assay relative to control. In kind it is cell-based. The conditions noted are these: read-out: Survival.
Data set [2] concerns Ca9-22. Nature of the data set: Anti-metastatic activity against human Ca9-22 cells assessed as inhibition of cell migration at 2 uM preincubated for 2 hrs followed by 0.5 Jcm'-2 UVA irradiation measured after 16 hrs by wound healing assay relative to control. In kind it is functional. The conditions noted are these: Ca9-22, light or radiation study.
Data set [3] has as its system Ca9-22. The data set is described as follows: Antiinvasive activity against human Ca9-22 cells assessed as cell invasion at 2 uM preincubated for 2 hrs followed by 0.5 Jcm'-2 UVA irradiation measured after 22 hrs by boyden chamber assay relative to control. In kind it is functional.
Data set [4] concerns the target Epidermal growth factor receptor (Homo sapiens) (UniProt P00533). The data set is described as follows: Inhibition of phosphorylated EGFR level in human Ca9-22 cells at 2 uM preincubated for 2 hrs followed by 0.5 Jcm'-2 UVA irradiation by Western blot analysis. It counts as cell-based.
The target of data set [5] is T1, Epidermal growth factor receptor (Homo sapiens) (UniProt P04626+P00533+Q15303+P21860). The data set is described as follows: Inhibition of EGFR/ERK signalling in human Ca9-22 cells assessed as reduction in MMP9 expression at 2 uM preincubated for 2 hrs followed by 0.5 Jcm'-2 UVA irradiation by Western blot analysis. It counts as cell-based. (In general: Immunoblotting shows a protein as a band on a membrane.)

The target of data set [6] is T1, Epidermal growth factor receptor (Homo sapiens). The data set is described as follows: Inhibition of EGFR/ERK signalling in human Ca9-22 cells assessed as reduction in MMP2 expression at 2 uM preincubated for 2 hrs followed by 0.5 Jcm'-2 UVA irradiation by Western blot analysis. It counts as cell-based.
For data set [7], the system named is Ca9-22. Nature of the data set: Inhibition of phosphorylated ERK level in human Ca9-22 cells at 2 uM preincubated for 2 hrs followed by 0.5 Jcm'-2 UVA irradiation by Western blot analysis. In kind it is cell-based.
For data set [8], the system named is Ca9-22. The data set is described as follows: Increase in TIMP3 expression in human Ca9-22 cells at 2 uM preincubated for 2 hrs followed by 0.5 Jcm'-2 UVA irradiation by Western blot analysis. It counts as functional, cell-based.
Data set [9] relates to Ca9-22. Nature of the data set: Anti-metastatic activity against human Ca9-22 cells assessed as reduction in heparanase mRNA expression at 2 uM preincubated for 2 hrs followed by 0.5 Jcm'-2 UVA irradiation measured after 8 hrs by qRT-PCR method. It counts as functional, cell-based.
Data set [10] concerns Ca9-22. Nature of the data set: Anti-metastatic activity against human Ca9-22 cells assessed as increase in syndecan-1 mRNA expression at 2 uM preincubated for 2 hrs followed by 0.5 Jcm'-2 UVA irradiation measured after 8 hrs by qRT-PCR method. It counts as functional, cell-based. Background: Real-time PCR tracks product formation cycle by cycle.
The target of data set [11] is T1, Epidermal growth factor receptor (Homo sapiens). The data set is described as follows: Inhibition of EGFR/ERK signalling in human Ca9-22 cells assessed as reduction in MMP2 mRNA expression at 2 uM preincubated for 2 hrs followed by 0.5 Jcm'-2 UVA irradiation measured after 8 hrs by qRT-PCR method. In kind it is cell-based.
Data set [12] can be described thus: Cytotoxicity against human Ca9-22 cells assessed as inhibition of cell survival at 2 uM preincubated for 2 hrs followed by 0.5 Jcm'-2 UVA irradiation measured after 24 hrs by MTT assay relative to control. It counts as cell-based. The conditions noted are these: read-out: INH.
Data set [13] deals with T1, Epidermal growth factor receptor (Homo sapiens). The data set is described as follows: Inhibition of EGFR/ERK signalling in human Ca9-22 cells assessed as reduction in MMP9 mRNA expression at 2 uM preincubated for 2 hrs followed by 0.5 Jcm'-2 UVA irradiation measured after 8 hrs by qRT-PCR method. In kind it is cell-based.
The subject of data set [14] is Ca9-22. The data set is described as follows: Anti-metastatic activity against human Ca9-22 cells assessed as increase in TIMP3 mRNA expression at 2 uM preincubated for 2 hrs followed by 0.5 Jcm'-2 UVA irradiation measured after 8 hrs by qRT-PCR method. In kind it is functional, cell-based.

Epidermal growth factor receptor (Homo sapiens) (UniProt P00533), sequence (P00533 whole entry): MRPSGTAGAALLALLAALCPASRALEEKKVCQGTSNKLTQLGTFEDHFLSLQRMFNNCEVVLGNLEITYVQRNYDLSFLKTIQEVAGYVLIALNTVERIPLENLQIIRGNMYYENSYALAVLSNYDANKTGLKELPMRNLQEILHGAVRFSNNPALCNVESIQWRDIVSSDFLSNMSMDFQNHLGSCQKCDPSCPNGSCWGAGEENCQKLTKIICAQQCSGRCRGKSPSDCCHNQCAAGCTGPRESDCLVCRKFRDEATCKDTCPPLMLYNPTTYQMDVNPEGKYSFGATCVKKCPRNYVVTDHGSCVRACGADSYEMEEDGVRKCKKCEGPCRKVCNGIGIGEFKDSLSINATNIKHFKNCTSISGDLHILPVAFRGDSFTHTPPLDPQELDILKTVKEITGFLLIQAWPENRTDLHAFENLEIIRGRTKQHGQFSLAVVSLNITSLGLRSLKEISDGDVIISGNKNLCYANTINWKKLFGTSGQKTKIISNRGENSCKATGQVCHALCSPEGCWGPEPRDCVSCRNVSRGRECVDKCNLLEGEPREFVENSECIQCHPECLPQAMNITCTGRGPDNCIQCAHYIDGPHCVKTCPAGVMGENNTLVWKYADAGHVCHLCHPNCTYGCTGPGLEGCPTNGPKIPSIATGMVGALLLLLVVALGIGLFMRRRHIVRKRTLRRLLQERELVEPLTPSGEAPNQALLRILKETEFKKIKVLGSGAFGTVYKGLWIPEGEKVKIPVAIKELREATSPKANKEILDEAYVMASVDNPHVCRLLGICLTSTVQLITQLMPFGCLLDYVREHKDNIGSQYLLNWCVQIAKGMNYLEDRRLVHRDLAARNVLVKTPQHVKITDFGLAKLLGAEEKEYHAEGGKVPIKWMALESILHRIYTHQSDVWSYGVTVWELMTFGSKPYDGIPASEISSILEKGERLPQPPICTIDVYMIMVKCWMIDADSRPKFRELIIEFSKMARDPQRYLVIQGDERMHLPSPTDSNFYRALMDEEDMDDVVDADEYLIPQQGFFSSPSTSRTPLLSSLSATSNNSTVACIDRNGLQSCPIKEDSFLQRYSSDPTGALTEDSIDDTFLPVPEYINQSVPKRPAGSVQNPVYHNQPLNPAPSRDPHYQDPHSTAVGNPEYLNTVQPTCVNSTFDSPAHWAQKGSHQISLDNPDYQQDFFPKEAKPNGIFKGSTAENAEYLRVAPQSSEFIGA

For `COc1ccc2c(c1)nnn2-c1ccc(-c2nc3ccccc3s2)cc1`, the viability at 24 h, 5 µM in data set [1] stood at 104%.

In the case of `COc1ccc2c(c1)nnn2-c1ccc(-c2nc3ccc(C(F)(F)F)cc3s2)cc1`, the viability at 24 h, 5 µM in data set [1] amounted to 105%.

For `FC(F)(F)c1ccc2nc(-c3ccc(-n4nnc5ccccc54)cc3)sc2c1`, in data set [1], the viability at 24 h, 5 µM amounted to 91.8%.

As usually defined, the inhibition is the relative decrease from the control value, in per cent. `CCc1ccc2nc(-c3ccc(-n4nnc5cc(OC)ccc54)c(C)c3)sc2c1`: the viability at 24 h, 5 µM in data set [1] came to 73.1%. Besides, in the data set with Ca9-22 [2], the inhibition at 2 µM was 31.1%. Also, in the data set with Ca9-22 [3], the Activity was found to be 70%.

On to `COc1ccc2c(c1)nnn2-c1ccc(-c2nc3ccc(OC)cc3s2)cc1C`, for which the viability at 24 h, 5 µM in data set [1] was determined as 63.3%.

Take `CCc1ccc2nc(-c3ccc(-n4nnc5cc(OC)ccc54)cc3)sc2c1`: the viability at 24 h, 5 µM in data set [1] was determined as 114%.

In the case of `COc1ccc2c(c1)nnn2-c1ccc(-c2nc3ccc(C(F)(F)F)cc3s2)cc1C`, the viability at 24 h, 5 µM in data set [1] is 113%.

As for `Cc1cc(-c2nc3ccccc3s2)ccc1-n1nnc2ccccc21`, the inhibition result (in data set [4]; in data set [5]; in [6]; in the data set on Ca9-22 [7]) was “Active” in each case. Further, the viability at 24 h, 5 µM in [1] was found to be 48.6%. Besides, in the data set on Ca9-22 [8], the outcome was Active. The inhibition at 2 µM with Ca9-22 [2] is 45.8%. Besides, the Activity with Ca9-22 [3] amounted to 47.6%.

On to `COc1ccc2nc(-c3ccc(-n4nnc5ccccc54)cc3)sc2c1`, for which the outcome in the data set with Ca9-22 [9], in the data set with Ca9-22 [10], in the data set with Ca9-22 [8] and in the data set on Ca9-22 [14] was Active. Besides, the inhibition result (in data set [4]; in [11]; in data set [5]; in [13]; in data set [6]; in the data set with Ca9-22 [7]) was “Active” each time. The viability at 24 h, 5 µM in [1] amounted to 44.1%. The cytotoxicity at 24 h, 2 µM in data set [12] came out at 20%. In the data set on Ca9-22 [2], the inhibition at 2 µM is 68.7%. Besides, the Activity in the data set with Ca9-22 [3] was 38.9%.

In the case of `COc1ccc2c(c1)nnn2-c1ccc(-c2nc3ccc(OC)cc3s2)cc1`, the viability at 24 h, 5 µM in [1] was determined as 81.1%. The inhibition at 2 µM in the data set with Ca9-22 [2] worked out at 51.7%. Moreover, the Activity with Ca9-22 [3] is reported as 108.6%.

In the case of `COc1ccc2c(c1)nnn2-c1ccc(-c2nc3ccccc3s2)cc1C`, the viability at 24 h, 5 µM in data set [1] was 79.6%. The inhibition at 2 µM in the data set on Ca9-22 [2] is 18.5%. Also, the Activity in the data set with Ca9-22 [3] is 75.9%.

With `c1ccc2sc(-c3ccc(-n4nnc5ccccc54)cc3)nc2c1`, the viability at 24 h, 5 µM in data set [1] came out at 95.5%.

`CCc1ccc2nc(-c3ccc(-n4nnc5ccccc54)c(C)c3)sc2c1`: the inhibition result (in data set [4]; in data set [5]; in data set [6]; with Ca9-22 [7]) was “Active” in each case. Further, the viability at 24 h, 5 µM in data set [1] came out at 50.2%. For the same compound, the outcome with Ca9-22 [8] was Active. Also, in the data set with Ca9-22 [2], the inhibition at 2 µM is 70.1%. The Activity in the data set on Ca9-22 [3] was 47%.

Regarding `COc1ccc2nc(-c3ccc(-n4nnc5ccccc54)c(C)c3)sc2c1`, the viability at 24 h, 5 µM in data set [1] was 82.1%.

As to `Cc1cc(-c2nc3ccc(C(F)(F)F)cc3s2)ccc1-n1nnc2ccccc21`, the viability at 24 h, 5 µM in data set [1] was found to be 89.4%.

With `CCc1ccc2nc(-c3ccc(-n4nnc5ccccc54)cc3)sc2c1`, the viability at 24 h, 5 µM in [1] is 109%.
